Test results: ChEMBL document CHEMBL5143607, “Discovery and structure-activity relationships of a novel oxazolidinone class of bacterial type II topoisomerase inhibitors” (Bioorg Med Chem Lett, 2022)
Converted amounts (≈) assume the structure as drawn.

Columns and labels:
[1] = Inhibition of Escherichia coli topoisomerase 4 assessed as reduction in decatenation
[2] = target: DNA topoisomerase 2-alpha (Homo sapiens, UniProt P11388); assay: Inhibition of human topoisomerase 2 assessed as reduction in decatenation
Escherichia coli [3] = assay: Antibacterial activity against Escherichia coli N43 assessed as bacterial growth inhibition by CLSI protocol based assay; assay type: functional
[4] = Cytotoxicity against human HepG2 cells assessed as reduction in cell viability for 24 hrs by Celltiter-Glo assay; assay type: toxicity, cell-based
Escherichia coli [5] = assay: Resistance development in Escherichia coli ATCC25922 assessed as spontaneous resistance frequency at 4 times MIC by resistance development assay; assay type: functional
Pseudomonas aeruginosa [6] = assay: Antibacterial activity against Pseudomonas aeruginosa ATCC 27853 assessed as bacterial growth inhibition by CLSI protocol based assay; assay type: functional
DNA gyrase = DNA gyrase (Escherichia coli, UniProt P0AES4+P0AES6); assay: Inhibition of Escherichia coli DNA gyrase supercoiling activity; assay type: protein-complex assay
[7] = Intrinsic clearance in human liver microsomes in presence of NADPH and measured upto 45 mins; assay type: ADME, Microsome; conditions: read-out: CLH
[8] = Kinetic solubility of compound; assay type: physicochemical; conditions: read-out: Kinetic_solubility
Acinetobacter baumannii [9] = assay: Antibacterial activity against Acinetobacter baumannii NCTC 13420 assessed as bacterial growth inhibition by CLSI protocol based assay; assay type: functional
Escherichia coli [10] = assay: Antibacterial activity against Escherichia coli W4573 assessed as bacterial growth inhibition by CLSI protocol based assay; assay type: functional
Escherichia coli [11] = assay: Antibacterial activity against Escherichia coli ATCC25922 assessed as bacterial growth inhibition by CLSI protocol based assay; assay type: functional
Staphylococcus aureus = assay: Antibacterial activity against Staphylococcus aureus ATCC 29213 assessed as bacterial growth inhibition by CLSI protocol based assay; assay type: functional
[12] = target: Voltage-gated inwardly rectifying potassium channel KCNH2 (Homo sapiens, UniProt Q12809); assay: Inhibition of human ERG by Ionworks electrophysiology assay; assay type: toxicity
[13] = Plasma protein binding in mouse assessed as free fraction by equilibrium dialysis assay; assay type: ADME, cell-free
Klebsiella pneumoniae [14] = assay: Antibacterial activity against Klebsiella pneumoniae ATCC 700603 assessed as bacterial growth inhibition by CLSI protocol based assay; assay type: functional
[15] = Lipophilicity, logD of the compound by shake flask assay; assay type: physicochemical; conditions: octanol/water
[16] = Intrinsic clearance in mouse liver microsomes in presence of NADPH and measured upto 45 mins; assay type: ADME, Microsome; conditions: read-out: CLH
Acinetobacter baumannii [17] = assay: In vivo antibacterial activity against multidrug resistant Acinetobacter baumannii NCTC 13420 infected in mouse thigh infection model assessed as log change in bacterial burden at 30 mg/kg, sc administered at 1 hr post infection and measured after 8 hrs relative to control; assay type: functional
[18] = Protein binding in mouse plasma by equilibrium dialysis assay; assay type: ADME, cell-free
Acinetobacter baumannii [19] = assay: In vivo antibacterial activity against multidrug resistant Acinetobacter baumannii NCTC 13420 infected in mouse thigh infection model assessed as log change in bacterial burden at 60 mg/kg, sc administered at 1 hr post infection and measured after 8 hrs relative to control; assay type: functional
Acinetobacter baumannii [20] = assay: In vivo antibacterial activity against multidrug resistant Acinetobacter baumannii NCTC 13420 infected in mouse thigh infection model assessed as log change in bacterial burden at 45 mg/kg, sc administered at 1 hr post infection and measured after 8 hrs relative to control; assay type: functional
Acinetobacter baumannii [21] = assay: In vivo antibacterial activity against multidrug resistant Acinetobacter baumannii NCTC 13420 infected in mouse thigh infection model assessed in reduction in bacterial burden at 120 mg/kg, sc administered at 1 hr post infection and measured after 8 hrs (reference value: 5.4 log10CFU/g); assay type: functional
Enterobacter cloacae = assay: Antibacterial activity against Enterobacter cloacae clinical isolate 41 assessed as bacterial growth inhibition by CLSI protocol based assay; assay type: functional
[22] = Protein binding in human plasma by equilibrium dialysis assay; assay type: ADME, cell-free; conditions: read-out: PPB (converted)
Pseudomonas aeruginosa [23] = assay: Antibacterial activity against Pseudomonas aeruginosa clinical isolate 42 assessed as bacterial growth inhibition by CLSI protocol based assay; assay type: functional
Acinetobacter baumannii [24] = assay: In vivo antibacterial activity against multidrug resistant Acinetobacter baumannii NCTC 13420 infected in mouse thigh infection model assessed as log change in bacterial burden at 120 mg/kg, sc administered at 1 hr post infection and measured after 8 hrs relative to control; assay type: functional
Acinetobacter baumannii [25] = assay: In vivo antibacterial activity against multidrug resistant Acinetobacter baumannii NCTC 13420 infected in mouse thigh infection model assessed in reduction in bacterial burden at 60 mg/kg, sc administered at 1 hr post infection and measured after 8 hrs (reference value: 5.4 log10CFU/g); assay type: functional
Klebsiella pneumoniae [26] = assay: Antibacterial activity against Klebsiella pneumoniae clinical isolate 42 assessed as bacterial growth inhibition by CLSI protocol based assay; assay type: functional
Acinetobacter baumannii [27] = assay: In vivo antibacterial activity against multidrug resistant Acinetobacter baumannii NCTC 13420 infected in mouse thigh infection model assessed in reduction in bacterial burden at 30 mg/kg, sc administered at 1 hr post infection and measured after 8 hrs (reference value: 5.4 log10CFU/g); assay type: functional
Acinetobacter baumannii [28] = assay: In vivo antibacterial activity against multidrug resistant Acinetobacter baumannii NCTC 13420 infected in mouse thigh infection model assessed in reduction in bacterial burden at 45 mg/kg, sc administered at 1 hr post infection and measured after 8 hrs (reference value: 5.4 log10CFU/g); assay type: functional
Escherichia coli [29] = assay: Antibacterial activity against Escherichia coli clinical isolate 42 assessed as bacterial growth inhibition by CLSI protocol based assay; assay type: functional
Acinetobacter baumannii [30] = assay: Antibacterial activity against […] Acinetobacter baumannii clinical isolate 43 assessed as bacterial growth inhibition by CLSI protocol based assay; assay type: functional
Acinetobacter baumannii [31] = assay: In vivo antibacterial activity against multidrug resistant Acinetobacter baumannii NCTC 13420 infected in mouse thigh infection model assessed in reduction in bacterial burden at 20 mg/kg, iv administered at 1 hr post infection and measured after 8 hrs (reference value: 5.4 log10CFU/g); assay type: functional
Acinetobacter baumannii [32] = assay: In vivo antibacterial activity against multidrug resistant Acinetobacter baumannii NCTC 13420 infected in mouse thigh infection model assessed as log change in bacterial burden at 20 mg/kg, iv administered at 1 hr post infection and measured after 8 hrs relative to control; assay type: functional

Sequence of Voltage-gated inwardly rectifying potassium channel KCNH2 (Q12809 whole entry): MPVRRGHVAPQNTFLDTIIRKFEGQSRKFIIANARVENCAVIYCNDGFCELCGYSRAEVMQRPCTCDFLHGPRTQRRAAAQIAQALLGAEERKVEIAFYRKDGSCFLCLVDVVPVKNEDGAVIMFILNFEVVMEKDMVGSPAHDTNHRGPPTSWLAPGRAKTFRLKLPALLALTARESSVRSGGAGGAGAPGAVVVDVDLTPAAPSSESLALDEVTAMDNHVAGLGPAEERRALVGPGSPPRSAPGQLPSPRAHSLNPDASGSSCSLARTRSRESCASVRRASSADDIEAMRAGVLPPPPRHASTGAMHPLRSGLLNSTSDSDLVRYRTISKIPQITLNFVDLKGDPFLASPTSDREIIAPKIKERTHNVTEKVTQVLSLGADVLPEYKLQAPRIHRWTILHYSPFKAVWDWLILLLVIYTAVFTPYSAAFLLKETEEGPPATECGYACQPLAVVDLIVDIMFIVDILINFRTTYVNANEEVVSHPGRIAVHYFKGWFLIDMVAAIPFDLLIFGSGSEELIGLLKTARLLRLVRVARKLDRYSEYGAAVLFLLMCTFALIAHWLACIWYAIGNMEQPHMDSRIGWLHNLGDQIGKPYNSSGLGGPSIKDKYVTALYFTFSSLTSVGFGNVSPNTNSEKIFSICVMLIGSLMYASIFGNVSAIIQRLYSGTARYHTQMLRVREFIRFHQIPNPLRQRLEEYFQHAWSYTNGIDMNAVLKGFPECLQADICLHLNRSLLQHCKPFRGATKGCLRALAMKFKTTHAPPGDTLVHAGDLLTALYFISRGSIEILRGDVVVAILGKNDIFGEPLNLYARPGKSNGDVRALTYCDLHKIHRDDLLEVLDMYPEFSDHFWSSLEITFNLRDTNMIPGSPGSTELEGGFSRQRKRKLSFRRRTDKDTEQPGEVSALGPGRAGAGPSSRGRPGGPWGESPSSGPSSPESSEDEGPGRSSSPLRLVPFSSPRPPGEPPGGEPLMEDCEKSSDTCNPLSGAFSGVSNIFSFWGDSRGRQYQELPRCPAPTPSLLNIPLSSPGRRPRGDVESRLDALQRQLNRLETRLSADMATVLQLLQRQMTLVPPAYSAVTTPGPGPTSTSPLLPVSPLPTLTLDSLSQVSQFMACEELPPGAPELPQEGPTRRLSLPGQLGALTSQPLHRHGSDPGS
Sequence of DNA topoisomerase 2-alpha (P11388 whole entry): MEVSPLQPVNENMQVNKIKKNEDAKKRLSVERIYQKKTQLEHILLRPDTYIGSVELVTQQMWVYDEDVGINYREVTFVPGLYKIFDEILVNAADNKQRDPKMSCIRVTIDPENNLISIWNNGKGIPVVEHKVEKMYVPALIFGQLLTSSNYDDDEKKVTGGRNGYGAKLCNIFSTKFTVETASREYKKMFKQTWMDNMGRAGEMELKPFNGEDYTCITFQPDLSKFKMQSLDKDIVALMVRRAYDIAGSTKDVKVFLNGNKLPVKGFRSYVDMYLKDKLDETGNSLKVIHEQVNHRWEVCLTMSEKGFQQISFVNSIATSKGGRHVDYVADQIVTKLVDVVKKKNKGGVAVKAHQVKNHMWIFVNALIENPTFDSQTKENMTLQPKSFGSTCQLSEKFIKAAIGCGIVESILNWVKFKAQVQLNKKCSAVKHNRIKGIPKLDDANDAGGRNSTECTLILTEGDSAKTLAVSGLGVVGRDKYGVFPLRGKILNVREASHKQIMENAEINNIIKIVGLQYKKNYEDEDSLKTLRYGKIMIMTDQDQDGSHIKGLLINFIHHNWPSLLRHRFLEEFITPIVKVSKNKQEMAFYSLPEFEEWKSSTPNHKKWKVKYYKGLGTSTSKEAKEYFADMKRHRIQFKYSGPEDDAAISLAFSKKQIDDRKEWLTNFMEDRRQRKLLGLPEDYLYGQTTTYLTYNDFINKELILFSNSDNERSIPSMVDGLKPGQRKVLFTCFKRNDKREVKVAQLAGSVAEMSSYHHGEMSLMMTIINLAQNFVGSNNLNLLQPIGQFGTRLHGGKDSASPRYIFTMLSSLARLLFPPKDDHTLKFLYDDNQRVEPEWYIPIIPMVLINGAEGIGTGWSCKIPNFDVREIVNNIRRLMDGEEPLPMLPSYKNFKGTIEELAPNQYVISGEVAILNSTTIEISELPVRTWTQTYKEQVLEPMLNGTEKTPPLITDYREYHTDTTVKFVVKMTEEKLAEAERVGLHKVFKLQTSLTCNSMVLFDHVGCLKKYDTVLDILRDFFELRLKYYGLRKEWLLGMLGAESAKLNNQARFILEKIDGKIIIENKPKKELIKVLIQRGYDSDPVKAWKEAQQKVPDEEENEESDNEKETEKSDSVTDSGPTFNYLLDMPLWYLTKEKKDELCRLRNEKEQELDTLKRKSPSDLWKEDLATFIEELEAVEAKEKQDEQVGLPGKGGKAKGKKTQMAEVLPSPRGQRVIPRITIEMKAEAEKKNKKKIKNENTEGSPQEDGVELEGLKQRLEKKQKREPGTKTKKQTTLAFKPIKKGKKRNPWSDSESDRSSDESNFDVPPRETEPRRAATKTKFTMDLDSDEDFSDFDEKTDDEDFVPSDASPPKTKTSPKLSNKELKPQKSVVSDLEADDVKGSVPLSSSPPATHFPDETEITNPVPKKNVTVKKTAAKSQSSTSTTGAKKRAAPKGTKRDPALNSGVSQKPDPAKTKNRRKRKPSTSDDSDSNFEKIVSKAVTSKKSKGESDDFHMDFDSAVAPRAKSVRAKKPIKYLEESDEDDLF

Row | Structure (SMILES) | IC50 [1] [nM] | IC50 [2] [nM] | MIC (Escherichia coli [3]) [µg/mL] | IC50 at 24 h [4] [µg/mL] | Activity (Escherichia coli [5]) | MIC (Pseudomonas aeruginosa [6]) [µg/mL] | IC50 (DNA gyrase) [nM] | microsomal CLint [7] [µL/min/mg] | MIC (Acinetobacter baumannii [9]) [µg/mL] | MIC (Escherichia coli [10]) [µg/mL] | MIC (Escherichia coli [11]) [µg/mL] | MIC (Staphylococcus aureus) [µg/mL] | IC50 [12] [nM] | MIC (Klebsiella pneumoniae [14]) [µg/mL] | logD [15] | MIC90 (Enterobacter cloacae) [µg/mL] | MIC90 (Pseudomonas aeruginosa [23]) [µg/mL] | MIC90 (Klebsiella pneumoniae [26]) [µg/mL] | MIC90 (Escherichia coli [29]) [µg/mL] | MIC90 (Acinetobacter baumannii [30]) [µg/mL] | further results
1 | N#Cc1ccc2ccc(=O)n(CCN[C@H]3CC[C@H]4[C@H](C3)OC(=O)N4c3ccc4c(n3)NC(=O)CO4)c2c1 | 230 | 72800 | ≤ 0.002 | > 128 | <7.1 10^-9No_unit | 2 (≈ 4 µM) | 30 | 59 | 0.25 (≈ 0.499 µM) | 0.03 (≈ 0.0599 µM) | 0.25 (≈ 0.499 µM) | 0.03 (≈ 0.0599 µM) | > 100000 | 2 (≈ 4 µM) | 1.51 | – | – | – | – | – | solubility kinetic [8]: 62 µM (≈ 31 µg/mL); fraction unbound [13]: > 0.3; microsomal CLint [16]: 125 µL/min/mg
2 | COc1ccc2ccc(=O)n(CCN[C@H]3CC[C@H]4[C@H](C3)OC(=O)N4c3ccc4c(n3)NC(=O)CO4)c2n1 | 10 | 14400 | < 0.008 | > 64 | <2.4 10^-9No_unit | 1 (≈ 1.97 µM) | 55 | 110 | 0.03 (≈ 0.0592 µM) | 0.12 (≈ 0.237 µM) | 0.06 (≈ 0.118 µM) | 0.008 (≈ 0.0158 µM) | 5000 | 4 (≈ 7.9 µM) | 1.95 | 4 (≈ 7.9 µM) | 4 (≈ 7.9 µM) | 4 (≈ 7.9 µM) | 1 (≈ 1.97 µM) | 0.5 (≈ 0.987 µM) | Activity (Acinetobacter baumannii [17]): 1.7 log10CFU/g; PPB [18]: 15.8%; Activity (Acinetobacter baumannii [19]): -1 log10CFU/g; Activity (Acinetobacter baumannii [20]): 1.2 log10CFU/g; Activity (Acinetobacter baumannii [21]): 3.9 log10CFU/g; fraction unbound [22]: 0.856; Activity (Acinetobacter baumannii [24]): -1.5 log10CFU/g; solubility kinetic [8]: 76 µM (≈ 38.5 µg/mL); Activity (Acinetobacter baumannii [25]): 4.4 log10CFU/g; Activity (Acinetobacter baumannii [27]): 7.1 log10CFU/g; Activity (Acinetobacter baumannii [28]): 6.6 log10CFU/g; Fu [13]: 15%; microsomal CLint [16]: 264 µL/min/mg
3 | CN(C)c1cc(NC(=O)CNC(C)(C)C)c(O)c2c1C[C@H]1C[C@H]3[C@H](N(C)C)C(O)=C(C(N)=O)C(=O)[C@@]3(O)C(O)=C1C2=O [TIGECYCLINE] | – | – | – | – | – | – | – | – | – | – | – | – | – | – | – | – | – | – | – | – | Activity (Acinetobacter baumannii [31]): 4.2 log10CFU/g; Activity (Acinetobacter baumannii [32]): -1.2 log10CFU/g
4 | C[C@H]1COc2c(N3CCN(C)CC3)c(F)cc3c(=O)c(C(=O)O)cn1c23.C[C@H]1COc2c(N3CCN(C)CC3)c(F)cc3c(=O)c(C(=O)O)cn1c23.O [LEVOFLOXACIN] | – | – | – | – | – | – | – | – | – | – | – | – | – | – | – | 32 | 32 | 16 | 16 | 16 | –
5 | O=c1ccc2ncc(=O)n3c2n1C[C@H]3CN1CCC(NCc2cc3c(cn2)OCCC3)CC1 [GEPOTIDACIN] | 35 | 55200 | 0.015 (≈ 0.0334 µM) | > 128 | <2 10^-8No_unit | 2 (≈ 4.46 µM) | – | – | 16 (≈ 35.7 µM) | 0.5 (≈ 1.11 µM) | 0.03 (≈ 0.0669 µM) | 0.5 (≈ 1.11 µM) | > 100000 | 16 (≈ 35.7 µM) | -0.63 | 16 (≈ 35.7 µM) | 16 (≈ 35.7 µM) | 16 (≈ 35.7 µM) | 4 (≈ 8.92 µM) | 32 (≈ 71.3 µM) | fraction unbound ([18]; read-out: PPB (converted)): < 0.7; fraction unbound [22]: < 0.7
